Results on 17 compounds are retold here after patent publication US9765034B2, “5-halogenopyrazole biphenylcarboxamides” (BAYER CROPSCIENCE AG, priority 2012, dated 2017).

One data set relates to Uromyces appendiculatus. Kind of data set: In vivo preventive test on Uromyces appendiculatus (bean rust). Conditions: bean plants, preventive spray, 500 ppm, grading 11 days after contamination. The protocol:
Example: In Vivo Preventive Test on Uromyces appendiculatus (Bean Rust) […] Bean plants (“Saxa” variety), sown in starter cups on a 50/50 peat soil-pozzolana substrate and grown at 24° C., are treated at the 2-leaf stage (9 cm height) by spraying with the active ingredient prepared as described above. Plants, used as controls, are treated with the mixture of acetone/tween/DMSO/water not containing the active material. After 24 hours, the plants are contaminated by spraying the leaves with an aqueous suspension of Uromyces appendiculatus spores (150 000 spores per ml). […] Grading (% of efficacy) is carried out 11 days after the contamination, in comparison with the control plants. Under these conditions, good (at least 70%) or total protection is observed at a dose of 500 ppm with the following compounds: […]

The subject of the next data set is Sphaerotheca fuliginea. Description: In vivo preventive test on Sphaerotheca fuliginea (powdery mildew on cucurbits). The note with it: gherkin plants, preventive spray, 500 ppm, grading 12 days after contamination. The protocol: Example: In Vivo Preventive Test on Sphaerotheca fuliginea (Powdery Mildew on Cucurbits) […] Gherkin plants (“Vert petit de Paris” variety), sown in starter cups on a 50/50 peat soil-pozzolana substrate and grown at 24° C., are treated at the Z11 cotyledon stage by spraying with the active ingredient prepared as described above. Plants, used as controls, are treated with the mixture of acetone/tween/DMSO/water not containing the active material. After 24 hours, the plants are contaminated by spraying the cotyledons with an aqueous suspension of Sphaerotheca fuliginea spores (100 000 spores per ml). The spores are collected from infected plants. […] Grading (% of efficacy) is carried out 12 days after the contamination, in comparison with the control plants. Under these conditions, good (at least 70%) or total protection is observed at a dose of 500 ppm with the following compounds: […]

Another data set concerns Puccinia recondita. Description: In vivo preventive test on Puccinia recondita (brown rust on wheat). The note with it: wheat plants, preventive spray, 500 ppm, grading 12 days after contamination. Here is the method: Example: In Vivo Preventive Test on Puccinia recondita (Brown Rust on Wheat) […] Wheat plants (“Scipion” variety), sown in starter cups on a 50/50 peat soil-pozzolana substrate and grown at 22° C., are treated at the 1-leaf stage (10 cm height) by spraying with the active ingredient prepared as described above. Plants, used as controls, are treated with the mixture of acetone/tween/DMSO/water not containing the active material. After 24 hours, the plants are contaminated by spraying the leaves with an aqueous suspension of Puccinia […] spores (100 000 spores per ml). […] Grading (% of efficacy) is carried out 12 days after the contamination, in comparison with the control plants. Under these conditions, good (at least 70%) or total protection is observed at a dose of 500 ppm with the following compounds: […]

A further data set deals with Botrytis cinerea. Description: In vivo preventive test on Botrytis cinerea (grey mould). Conditions: gherkin plants, preventive spray, 500 ppm, grading 4 to 5 days after contamination. The protocol: Example: In Vivo Preventive Test on Botrytis cinerea (Grey Mould) […] Gherkin plants (“Vert petit de Paris” variety), sown in starter cups on a 50/50 peat soil-pozzolana substrate and grown at 24° C., are treated at the Z11 cotyledon stage by spraying with the active ingredient prepared as described above. Plants, used as controls, are treated with the mixture of acetone/tween/DMSO/water not containing the active material. After 24 hours, the plants are contaminated by spraying the cotyledons with an aqueous suspension of cryopreserved Botrytis cinerea spores (50 000 spores per ml). The spores are suspended in a nutrient solution composed of 10 g/L of PDB, 50 g/L of D-Fructose, 2 g/L of NH4NO3 and 1 g/L of KH2PO4. […] Grading (% of efficacy) is carried out 4 to 5 days after the contamination, in comparison with the control plants. Under these conditions, good (at least 70%) or total protection is observed at a dose of 500 ppm with the following compounds: […]

Another data set has as its system Alternaria brassicae. Kind of data set: In vivo preventive test on Alternaria brassicae (leaf spot on radish). The note with it: radish plants, preventive spray, 500 ppm, grading 6 days after contamination. The protocol: Example: In Vivo Preventive Test on Alternaria brassicae (Leaf Spot on Radish) […] Radish plants (“Pernod Clair” variety), sown in starter cups on a 50/50 peat soil-pozzolana substrate and grown at 17° C., are treated at the cotyledon stage by spraying with the active ingredient prepared as described above. Plants, used as controls, are treated with the mixture of acetone/tween/DMSO/water not containing the active material. After 24 hours, the plants are contaminated by spraying the cotyledons with an aqueous suspension of Alternaria brassicae spores (50 000 spores per ml). The spores are collected from a 15-day-old culture. […] Grading (% of efficacy) is carried out 6 days after the contamination, in comparison with the control plants. Under these conditions, good (at least 70%) or total protection is observed at a dose of 500 ppm with the following compounds: […]

Another data set has as its system Pyrenophora teres. Description: In vivo preventive test on Pyrenophora teres (net blotch on barley). Conditions: barley plants, preventive spray, 500 ppm, grading 14 days after contamination. Here is the method:
Example: In Vivo Preventive Test on Pyrenophora teres (Net Blotch on Barley) […] Barley plants (“Plaisant” variety), sown in starter cups on a 50/50 peat soil-pozzolana substrate and grown at 22° C., are treated at the 1-leaf stage (10 cm height) by spraying with the active ingredient prepared as described above. Plants, used as controls, are treated with the mixture of acetone/tween/DMSO/water not containing the active material. After 24 hours, the plants are contaminated by spraying the leaves with an aqueous suspension of Pyrenophora teres spores (12 000 spores per ml). The spores are collected from a 12-day-old culture. […] Grading (% of efficacy) is carried out 14 days after the contamination, in comparison with the control plants. Under these conditions, good (at least 70%) or total protection is observed at a dose of 500 ppm with the following compounds: […]

Data set [1] can be described thus: logP by HPLC on reversed phase columns (EEC directive 79/831 Annex V.A8). The note with it: method [a]: LC-MS at pH 2.7, 0.1% formic acid in water / acetonitrile gradient 10% to 95%.

Regarding `CCON=Cc1ccc(-c2ccccc2NC(=O)c2c(C(F)F)nn(C)c2Cl)c(F)c1` [Example 37], the Eff. % in the data set with Uromyces appendiculatus worked out at 97%; in the data set with Sphaerotheca fuliginea, 100%; in the data set with Puccinia recondita it was 97%; with Botrytis cinerea, 100%; in the data set on Alternaria brassicae, 88%; in the data set with Pyrenophora teres, 100%. In data set [1], the logP is 3.65[a].
With `CCON=Cc1c(F)cc(-c2ccccc2NC(=O)c2c(C(F)F)nn(C)c2Cl)cc1F` [Example 14], the Eff. % in the data set on Uromyces appendiculatus is 100%; with Sphaerotheca fuliginea, 100%; in the data set with Puccinia recondita it was 100%; in the data set with Botrytis cinerea it was 70%; in the data set with Alternaria brassicae, 100%; with Pyrenophora teres, 100%. The logP in data set [1] is 4.04[a].
As to `CON=Cc1ccc(-c2ccccc2NC(=O)c2c(C(F)F)nn(C)c2Cl)cc1Cl` [Example 38], the Eff. % turned out to be 100% in the data set with Uromyces appendiculatus; 100% with Sphaerotheca fuliginea; 97% in the data set on Puccinia recondita; 94% with Alternaria brassicae; 96% in the data set on Pyrenophora teres. In addition, in data set [1], the logP is 4.19[a].
Consider `CCON=C(C)c1ccc(-c2ccccc2NC(=O)c2c(C(F)F)nn(C)c2Cl)cc1` [Example 2], for which the Eff. % with Uromyces appendiculatus was 100%; in the data set on Sphaerotheca fuliginea it was 100%; in the data set with Puccinia recondita, 98%. Also, in data set [1], the logP was 4.58[a].
With `CCON=C(C)c1ccc(-c2ccccc2NC(=O)c2c(C(F)F)nn(C)c2Cl)cc1` [Example 34], the Eff. % in the data set on Uromyces appendiculatus was 100%; in the data set with Puccinia recondita, 89%; in the data set on Pyrenophora teres it was 80%. In data set [1], the logP is 4.49[a].
`CCON=Cc1ccc(-c2ccccc2NC(=O)c2c(C(F)F)nn(C)c2Cl)c(Cl)c1` [Example 36]: the Eff. % is 94% with Uromyces appendiculatus; 100% in the data set with Sphaerotheca fuliginea; 97% in the data set on Puccinia recondita; 95% in the data set on Botrytis cinerea; 81% in the data set on Alternaria brassicae; 90% in the data set with Pyrenophora teres. For the same compound, the logP in data set [1] was 4.49[a].
For `CCON=Cc1ccc(-c2ccccc2NC(=O)c2c(C(F)F)nn(C)c2Cl)cc1Cl` [Example 17], the Eff. % with Uromyces appendiculatus is given as 100%; in the data set with Sphaerotheca fuliginea it was 100%; in the data set on Puccinia recondita, 97%; in the data set with Alternaria brassicae, 98%; in the data set with Pyrenophora teres it was 96%. The logP in data set [1] is 4.64[a].
Consider `CCON=C(C)c1ccc(-c2ccccc2NC(=O)c2c(C(F)F)nn(C)c2F)cc1` [Example 16], for which the Eff. % in the data set on Uromyces appendiculatus came to 100%; in the data set with Puccinia recondita, 94%; in the data set on Botrytis cinerea, 80%; in the data set on Alternaria brassicae it was 100%; in the data set on Pyrenophora teres, 79%. Also, in data set [1], the logP is 4.29[a].
For `CON=Cc1ccc(-c2ccccc2NC(=O)c2c(C(F)F)nn(C)c2Cl)c(Cl)c1` [Example 10], the Eff. % is reported as 100% in the data set on Uromyces appendiculatus, 100% with Sphaerotheca fuliginea and 97% with Puccinia recondita. The logP in data set [1] was 4.05[a].
With `CON=Cc1ccc(-c2ccccc2NC(=O)c2c(C(F)F)nn(C)c2Cl)cc1F` [Example 33], the Eff. % in the data set on Uromyces appendiculatus is reported as 99%; in the data set with Sphaerotheca fuliginea, 100%; in the data set with Puccinia recondita it was 100%; with Botrytis cinerea, 95%; in the data set on Alternaria brassicae, 88%; in the data set with Pyrenophora teres it was 96%. Also, in data set [1], the logP was 3.75[a].
As for `CCON=C(C)c1ccc(-c2ccccc2NC(=O)c2c(C(F)F)nn(C)c2F)cc1` [Example 11], the Eff. % in the data set on Uromyces appendiculatus stood at 100%; in the data set on Sphaerotheca fuliginea it was 100%; in the data set with Puccinia recondita, 94%; in the data set with Alternaria brassicae, 97%; in the data set on Pyrenophora teres it was 96%. In addition, the logP in data set [1] is 4.24[a].
For the compound `CCON=Cc1ccc(-c2ccccc2NC(=O)c2c(C(F)F)nn(C)c2Cl)cc1C(F)(F)F` [Example 26], the Eff. % in the data set with Uromyces appendiculatus was 100%; with Sphaerotheca fuliginea, 100%; in the data set on Puccinia recondita it was 97%; with Pyrenophora teres it was 90%. Also, the logP in data set [1] was 4.65[a].
`CON=C(C)c1cccc(-c2cccc(NC(=O)c3c(C(F)F)nn(C)c3F)c2)c1` [Example 42]: the figures for the Eff. % in the data set on Uromyces appendiculatus, with Puccinia recondita and in the data set on Pyrenophora teres were 97%, 89% and 70%, respectively. The logP in data set [1] was 3.85[a].
With `CCON=C(C)c1cccc(-c2cccc(NC(=O)c3c(C(F)F)nn(C)c3Cl)c2)c1` [Example 43], the Eff. % worked out at 100% with Uromyces appendiculatus, 89% in the data set with Puccinia recondita and 80% in the data set with Pyrenophora teres. In addition, the logP in data set [1] was 4.49[a].
In the case of `CCON=C(C)c1cccc(-c2cccc(NC(=O)c3c(C(F)F)nn(C)c3F)c2)c1` [Example 44], the Eff. % was 100% in the data set with Uromyces appendiculatus; 94% in the data set on Puccinia recondita; 80% in the data set with Botrytis cinerea; 100% with Alternaria brassicae; 79% in the data set on Pyrenophora teres. In addition, the logP in data set [1] was 4.29[a].
In the case of `CCON=Cc1ccc(-c2cc(F)ccc2NC(=O)c2c(C(F)F)nn(C)c2Cl)cc1` [Example 19], the Eff. % with Uromyces appendiculatus turned out to be 100%; with Sphaerotheca fuliginea, 100%; in the data set with Puccinia recondita it was 97%; with Botrytis cinerea it was 70%; in the data set with Alternaria brassicae, 88%; in the data set on Pyrenophora teres it was 80%. In addition, the logP in data set [1] was 4.11[a].
As for `CON=C(C)c1cccc(-c2cccc(NC(=O)c3c(C(F)F)nn(C)c3Cl)c2)c1` [Example 45], the Eff. % is 100% in the data set with Uromyces appendiculatus, 94% with Puccinia recondita and 80% in the data set on Pyrenophora teres. Further, in data set [1], the logP is 4.04[a].
